{"source": "ChEMBL document CHEMBL2057124", "about": "“Benzoheterocyclic amodiaquine analogues with potent antiplasmodial activity: synthesis and pharmacological evaluation” (Bioorg Med Chem Lett, 2012)", "key": {"[1]": {"test": "Selectivity ratio of IC50 for rat L6 cells to IC50 for […]", "assay_type": "ADME, cell-based", "conditions": "read-out: Ratio IC50"}, "Plasmodium falciparum [2]": {"tested_on": "Plasmodium falciparum", "test": "Antiplasmodial activity against chloroquine-resistant Plasmodium falciparum K1 assessed as [3H]hypoxanthine incorporation after 24 hrs by scintillation counting", "assay_type": "functional, organism-based"}, "L6": {"tested_on": "L6", "test": "Cytotoxicity against rat L6 cells after 72 hrs by alamar blue assay", "assay_type": "cell-based", "conditions": "L6, 72 h"}, "Plasmodium falciparum [3]": {"tested_on": "Plasmodium falciparum", "test": "Antiplasmodial activity against chloroquine-resistant Plasmodium falciparum W2 infected in human erythrocytes after 48 hrs by Geimsa staining", "assay_type": "functional, organism-based", "conditions": "W2, 48 h"}, "Plasmodium falciparum [4]": {"tested_on": "Plasmodium falciparum", "test": "Resistance ratio of IC50 for chloroquine-resistance Plasmodium falciparum K1 to IC50 for […]", "assay_type": "functional"}}, "data": [{"molecule": "CCN(CC)CCNc1nc2cc(Nc3ccnc4cc(Cl)ccc34)ccc2[nH]1", "values": [{"measurement": "selectivity ratio", "setting": "[1]", "value": 76.4}, {"measurement": "IC50", "setting": "Plasmodium falciparum [2]", "value": 0.827, "unit": "µM"}, {"measurement": "IC50", "setting": "L6", "value": 15.3, "unit": "µM"}, {"measurement": "IC50", "setting": "Plasmodium falciparum [3]", "value": 0.2, "unit": "µM"}]}, {"molecule": "Clc1ccc2c(Nc3ccc4[nH]c(NCCN5CCCCC5)nc4c3)ccnc2c1", "values": [{"measurement": "selectivity ratio", "setting": "[1]", "value": 1.15}, {"measurement": "IC50", "setting": "Plasmodium falciparum [2]", "value": 0.09, "unit": "µM"}, {"measurement": "IC50", "setting": "L6", "value": 5.25, "unit": "µM"}, {"measurement": "IC50", "setting": "Plasmodium falciparum [3]", "value": 4.58, "unit": "µM"}]}, {"molecule": "Clc1ccc2c(Nc3ccc4sc(NCCN5CCOCC5)nc4c3)ccnc2c1", "values": [{"measurement": "selectivity ratio", "setting": "[1]", "value": 117}, {"measurement": "IC50", "setting": "Plasmodium falciparum [2]", "value": 0.025, "unit": "µM"}, {"measurement": "IC50", "setting": "L6", "value": 4.67, "unit": "µM"}, {"measurement": "IC50", "setting": "Plasmodium falciparum [3]", "value": 0.04, "unit": "µM"}]}, {"molecule": "Clc1ccc2c(Nc3ccc(NCCN4CCOCC4)nc3)ccnc2c1", "values": [{"measurement": "selectivity ratio", "setting": "[1]", "value": 1160}, {"measurement": "IC50", "setting": "Plasmodium falciparum [2]", "value": 0.073, "unit": "µM"}, {"measurement": "IC50", "setting": "L6", "value": 47.4, "unit": "µM"}, {"measurement": "IC50", "setting": "Plasmodium falciparum [3]", "value": 0.041, "unit": "µM"}]}, {"molecule": "Clc1ccc2c(Nc3ccc4sc(NCCN5CCCCC5)nc4c3)ccnc2c1", "values": [{"measurement": "selectivity ratio", "setting": "[1]", "value": 272}, {"measurement": "IC50", "setting": "Plasmodium falciparum [2]", "value": 0.007, "unit": "µM"}, {"measurement": "IC50", "setting": "L6", "value": 3.54, "unit": "µM"}, {"measurement": "IC50", "setting": "Plasmodium falciparum [3]", "value": 0.013, "unit": "µM"}]}, {"molecule": "Clc1ccc2c(Nc3ccc4sc(NCCN5CCCC5)nc4c3)ccnc2c1", "values": [{"measurement": "selectivity ratio", "setting": "[1]", "value": 426}, {"measurement": "IC50", "setting": "Plasmodium falciparum [2]", "value": 0.014, "unit": "µM"}, {"measurement": "IC50", "setting": "L6", "value": 5.12, "unit": "µM"}, {"measurement": "Ratio IC50", "setting": "Plasmodium falciparum [4]", "value": 1.2}, {"measurement": "IC50", "setting": "Plasmodium falciparum [3]", "value": 0.012, "unit": "µM"}]}, {"molecule": "CCN(CC)Cc1cc(Nc2ccnc3cc(Cl)ccc23)ccc1O", "values": [{"measurement": "IC50", "setting": "Plasmodium falciparum [2]", "value": 0.008, "unit": "µM"}, {"measurement": "IC50", "setting": "Plasmodium falciparum [3]", "value": 0.005, "unit": "µM"}]}, {"molecule": "Clc1ccc2c(Nc3ccc4oc(NCCN5CCCC5)nc4c3)ccnc2c1", "values": [{"measurement": "selectivity ratio", "setting": "[1]", "value": 1090}, {"measurement": "IC50", "setting": "Plasmodium falciparum [2]", "value": 0.022, "unit": "µM"}, {"measurement": "IC50", "setting": "L6", "value": 8.7, "unit": "µM"}, {"measurement": "Ratio IC50", "setting": "Plasmodium falciparum [4]", "value": 2.8}, {"measurement": "IC50", "setting": "Plasmodium falciparum [3]", "value": 0.008, "unit": "µM"}]}, {"molecule": "CCNc1nc2cc(Nc3ccnc4cc(Cl)ccc34)ccc2[nH]1", "values": [{"measurement": "selectivity ratio", "setting": "[1]", "value": 11.4}, {"measurement": "IC50", "setting": "Plasmodium falciparum [2]", "value": 0.249, "unit": "µM"}, {"measurement": "IC50", "setting": "L6", "value": 5.71, "unit": "µM"}, {"measurement": "IC50", "setting": "Plasmodium falciparum [3]", "value": 0.501, "unit": "µM"}]}, {"molecule": "Clc1ccc2c(Nc3ccc(NCCN4CCCC4)nc3)ccnc2c1", "values": [{"measurement": "selectivity ratio", "setting": "[1]", "value": 885}, {"measurement": "IC50", "setting": "Plasmodium falciparum [2]", "value": 0.092, "unit": "µM"}, {"measurement": "IC50", "setting": "L6", "value": 18.6, "unit": "µM"}, {"measurement": "Ratio IC50", "setting": "Plasmodium falciparum [4]", "value": 4.4}, {"measurement": "IC50", "setting": "Plasmodium falciparum [3]", "value": 0.021, "unit": "µM"}]}, {"molecule": "CCNc1nc2cc(Nc3ccnc4cc(Cl)ccc34)ccc2o1", "values": [{"measurement": "selectivity ratio", "setting": "[1]", "value": 33.3}, {"measurement": "IC50", "setting": "Plasmodium falciparum [2]", "value": 0.921, "unit": "µM"}, {"measurement": "IC50", "setting": "L6", "value": 16.4, "unit": "µM"}, {"measurement": "IC50", "setting": "Plasmodium falciparum [3]", "value": 0.491, "unit": "µM"}]}, {"molecule": "CC(C)(C)Nc1nc2cc(Nc3ccnc4cc(Cl)ccc34)ccc2s1", "values": [{"measurement": "selectivity ratio", "setting": "[1]", "value": 3.56}, {"measurement": "IC50", "setting": "Plasmodium falciparum [2]", "value": 0.917, "unit": "µM"}, {"measurement": "IC50", "setting": "L6", "value": 4.13, "unit": "µM"}, {"measurement": "IC50", "setting": "Plasmodium falciparum [3]", "value": 1.16, "unit": "µM"}]}, {"molecule": "CCN(CC)CCNc1nc2cc(Nc3ccnc4cc(Cl)ccc34)ccc2s1", "values": [{"measurement": "IC50", "setting": "Plasmodium falciparum [3]", "value": 0.011, "unit": "µM"}]}]}
